In PMC3430861, “The pharmacological profile of ELIC, a prokaryotic GABA-gated receptor” (Neuropharmacology, 2012):
Like-named read-outs stand apart in the source and are kept apart here.

Columns and labels:
[1] = molecular target: T1, ELIC (Dickeya chrysanthemi, UniProt P0C7B7, INS163G); assay: cell-based; format: cell-based, Erwinia chrysanthemi
T1 construct: expressed in transfected cells; host or cells: Xenopus laevis oocytes injected with cRNA
Description: Xenopus laevis oocyte-positive females were purchased from NASCO (Fort Atkinson, Wisconsin, USA) and maintained according to standard methods.
(§1) The ELIC sequence (Genbank accession number POC7B7) was purchased from Genscript as a synthetic gene with optimized codon usage for expression in Escherichia coli. […] Stage V and VI oocytes were injected with 20 ng cRNA, and currents recorded 1–3 days post-injection.

[2] = tested on: GLIC; parameters: method as in Alqazzaz et al., 2011; conditions: comparison ELIC vs GLIC; ref Alqazzaz et al., 2011; cited from earlier work
[3] = molecular target: T2, ELIC (Dickeya chrysanthemi, UniProt P0C7B7); assay: cell-based; format: cell-based, Erwinia chrysanthemi
T2 sequence (P0C7B7 8-321): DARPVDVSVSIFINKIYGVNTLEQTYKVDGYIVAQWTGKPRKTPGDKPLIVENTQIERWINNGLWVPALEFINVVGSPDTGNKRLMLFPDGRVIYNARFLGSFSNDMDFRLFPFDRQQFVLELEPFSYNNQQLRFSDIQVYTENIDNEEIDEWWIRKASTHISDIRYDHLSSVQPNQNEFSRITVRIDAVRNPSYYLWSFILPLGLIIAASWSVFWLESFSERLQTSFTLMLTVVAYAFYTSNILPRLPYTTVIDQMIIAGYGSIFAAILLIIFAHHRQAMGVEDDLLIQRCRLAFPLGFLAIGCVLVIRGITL
Description: Xenopus laevis oocyte-positive females were purchased from NASCO (Fort Atkinson, Wisconsin, USA) and maintained according to standard methods. Harvested stage V–VI Xenopus oocytes were washed in four changes of ND96 (96 mM NaCl, 2 mM KCl, 1 mM MgCl2, 5 mM HEPES, pH 7.5), de-folliculated in 1.5 mg ml^−1 collagenase Type 1A for approximately 2 h, washed again in four changes of ND96 and stored in ND96 containing 2.5 mM sodium pyruvate, […], 0.7 mM theophylline.
as §1

[4] = 10 mM, read-out: pEC50 (EC50): agonist effect at the concentration shown (converted)
[5] = Hill coefficient of inhibition curve
[6] = 1 mM, read-out: pEC50 (EC50): agonist effect at the concentration shown (converted)

## C[C@@H](O)[C@H](N)C(=O)O [Threonine]
[1]; 1 mM
  effect on ELIC (agonist test): no effect

## O=C(O)Cc1c[nH]c2ccccc12 [3-indole acetic acid]
[1]; 10 mM
  effect on ELIC (agonist test): no effect
[1]; [4]
  EC50: > 10000 µM

## NC12CC3CC(CC(C3)C1)C2 [Amantadine]
[2]
  inhibition of GLIC (yes/no): inhibiting both receptors
[3]
  inhibition of ELIC (yes/no): inhibiting both receptors
[3]; [5]
  nH: 2.5 ± 0.4
[3]; IC50
  IC50: 370 µM
[3]; pIC50 (Mean ± SEM)
  IC50: 372 µM

## N=C(N)NCCC[C@H](N)C(=O)O [Arginine]
[1]; 1 mM
  effect on ELIC (agonist test): no effect

## NCc1cc(=O)[nH]o1 [muscimol]
[1]; 30 μM
  effect on ELIC (agonist test): no effect

## CSCC[C@H](N)C(=O)O [Methionine]
[1]; 1 mM
  effect on ELIC (agonist test): no effect

## Cc1cccc(C)c1N=C([O-])C[N+](C)(C)C.Cl [QX-222]
[3]
  inhibition of ELIC (yes/no): inhibiting neither
  pIC50: no inhibition: NI (key: NI: no inhibition at 10 mM; NI*: no inhibition at 100 μM)

## N[C@@H](Cc1ccccc1)C(=O)O [Phenylalanine]
[1]; 1 mM
  effect on ELIC (agonist test): no effect

## NCCCC[C@H](N)C(=O)O [Lysine]
[1]; 1 mM
  effect on ELIC (agonist test): no effect

## N[C@@H](CC(=O)O)C(=O)O [Aspartate]
[1]; 1 mM
  effect on ELIC (agonist test): no effect

## CC(=O)[C@H]1CC[C@H]2[C@@H]3CCC4=CC(=O)CC[C@]4(C)[C@H]3CC[C@]12C [Progesterone]
[3]
  nH: 1.8 ± 0.58
[3]; IC50
  IC50: 150 µM
[3]; pIC50 (Mean ± SEM)
  IC50: 151 µM

## CC[C@H](C)[C@H](N)C(=O)O [Isoleucine]
[1]; 1 mM
  effect on ELIC (agonist test): no effect

## O=C(O)CCC(=O)O [succinic acid]
[1]; 10 mM
  effect on ELIC (agonist test): did not activate ELIC

## NCCC(=O)O [β-alanine]
[1]; 10 mM
  effect on ELIC (agonist test): no effect

## CC[N+](CC)(CC)CC [tetraethylammonium]
[3]; read-out: IC50
  IC50: ~20000 µM

## C[N+](C)(C)C [tetramethylammonium]
[3]; read-out: IC50
  IC50: ~20000 µM

## NCCCC(=O)O [GABA]
[1]; wild type ELIC, agonist concentration-response
  Hill Slope: 2.1 ± 0.6
[1]; wild type ELIC, oocytes clamped at −60 mV
  pEC50: 2.78 ± 0.04
[1]; wild type ELIC, oocytes clamped at −60 mV, read-out: EC50 (converted)
  EC50: 1600 µM

## N#Cc1nn(-c2c(Cl)cc(C(F)(F)F)cc2Cl)c(N)c1[S+]([O-])C(F)(F)F (centres unmarked) [Fipronil]
[2]
  inhibition of GLIC (yes/no): inhibiting both receptors
[3]
  inhibition of ELIC (yes/no): inhibiting both receptors
  nH: 1.8 ± 0.4
[3]; IC50
  IC50: 350 µM
[3]; pIC50 (Mean ± SEM)
  IC50: 347 ± 4.01 µM

## NCCc1c[nH]c2ccc(O)cc12 [5-HT]
[1]; [6]
  EC50: > 10000 µM
[1]; 10 mM
  effect on ELIC (agonist test): no ELIC responses

## Oc1ccc2[nH]ccc2c1 [5-hydroxyindole]
[3]
  inhibition of ELIC (yes/no): inhibiting neither

## NC(=O)C[C@H](N)C(=O)O [Asparagine]
[1]; 1 mM
  effect on ELIC (agonist test): no effect

## CN1CCc2cc3c(cc2[C@H]1[C@@H]1OC(=O)c2c1ccc1c2OCO1)OCO3 [Bicuculline]
[3]; 100 μM
  effect when co-applied in the presence of GABA: no effect
[3]; wild type ELIC, at the GABA EC50 (1.6 mM)
  pIC50: no inhibition: NI* (no inhibition at 100 μM)

## O=C(O)CCC(=O)C(=O)O [α-ketoglutarate]
[1]; 10 mM
  effect on ELIC (agonist test): did not activate ELIC
[1]; [4]
  EC50: > 10000 µM

## CC(C)[C@H](N)C(=O)O [Valine]
[1]; 1 mM
  effect on ELIC (agonist test): no effect

## ClC1=C(Cl)[C@]2(Cl)[C@@H]3[C@@H]4C[C@@H]([C@H]5O[C@@H]45)[C@@H]3[C@@]1(Cl)C2(Cl)Cl [Dieldrin]
[3]
  nH: 1.1 ± 0.1
[3]; IC50
  IC50: 66 µM
[3]; pIC50 (Mean ± SEM)
  IC50: 66.1 µM

## CCC(N)C(=O)O (stereo not drawn) [α-aminobutyrate]
[1]; 10 mM
  effect on ELIC (agonist test): did not activate ELIC
[1]; [4]
  EC50: > 10000 µM

## N[C@@H](Cc1ccc(O)cc1)C(=O)O [Tyrosine]
[3]
  effect when co-applied in the presence of GABA: no effect
[1]; 1 mM
  effect on ELIC (agonist test): no effect

## CC(C)C[C@H](N)C(=O)O [Leucine]
[1]; 1 mM
  effect on ELIC (agonist test): no effect

## CC(C)(C)[C@]1(O)CC2OC(=O)CC23C(=O)OC2OC(=O)[C@H](O)C231 (some centres unmarked) [Bilobalide]
[3]; [5]
  nH: 1.3 ± 0.2
[3]; IC50, wild type ELIC, at the GABA EC50 (1.6 mM)
  IC50: 330 µM
[3]; pIC50 (Mean ± SEM), wild type ELIC, at the GABA EC50 (1.6 mM)
  IC50: 331 µM

## NCC(=O)O [Glycine]
[1]; [6]
  EC50: > 10000 µM
[1]; 10 mM
  effect on ELIC (agonist test): no ELIC responses
[1]; [4]
  EC50: > 10000 µM

## N[C@@H](Cc1c[nH]c2ccccc12)C(=O)O [Tryptophan]
[1]; 1 mM
  effect on ELIC (agonist test): no effect

## CC(=O)O[C@H]1C[C@@H]2CC[C@@H]3[C@H](CC[C@@]4(C)[C@H]3C[C@H]([N+]3(C)CCCCC3)[C@@H]4OC(C)=O)[C@@]2(C)C[C@@H]1[N+]1(C)CCCCC1 [Pancuronium]
[3]
  pIC50: no inhibition: NI (key: NI: no inhibition at 10 mM; NI*: no inhibition at 100 μM)

## O=C(O)[C@@H]1CCCN1 [Proline]
[3]
  effect when co-applied in the presence of GABA: no effect
[1]; 1 mM
  effect on ELIC (agonist test): no effect

## COc1ccc(-c2ccc(=N)n(CCCC(=O)O)n2)cc1 [Gabazine (SR-95531), Gabazine]
[3]
  effect when co-applied in the presence of GABA: no effect

## Ivermectin
[3]
  inhibition of ELIC (yes/no): inhibiting neither
  pIC50: no inhibition: NI (key: NI: no inhibition at 10 mM; NI*: no inhibition at 100 μM)

## C[C@@H]1C[C@H]2[C@@H]3CCC4=CC(=O)C=C[C@]4(C)[C@@]3(F)[C@@H](O)C[C@]2(C)[C@@]1(O)C(=O)CO [Dexamethasone]
[3]; comparison ELIC vs GLIC
  inhibition of ELIC (yes/no): inhibiting neither

## O=C([O-])CCC(=O)[O-].[Na+].[Na+] [sodium succinate]
[1]; 10 mM
  effect on ELIC (agonist test): did not activate ELIC
[1]; [4]
  EC50: > 10000 µM

## C[C@H](N)C(=O)O [Alanine]
[1]; 1 mM
  effect on ELIC (agonist test): no effect

## CN(C)CCCN1c2ccccc2Sc2ccc(Cl)cc21 [Chlorpromazine]
[2]
  inhibition of GLIC (yes/no): inhibiting both receptors
[3]
  inhibition of ELIC (yes/no): inhibiting both receptors
  nH: 1.2 ± 0.4
[3]; IC50
  IC50: 230 µM
[3]; pIC50 (Mean ± SEM)
  IC50: 229 µM

## NCCCP(=O)(O)O [3-aminophosphonic acid]
[1]; 100 mM
  effect on ELIC (agonist test): no effect
[1]; 100 mM, read-out: pEC50 (EC50): agonist effect at the concentration shown (converted)
  EC50: > 10000 µM

## α-amino hydroxbutyric acid
[1]; 10 mM
  effect on ELIC (agonist test): no effect
[1]; [4]
  EC50: > 10000 µM

## CCCC(C(=O)OCCN(CC)CC)(c1ccccc1)c1ccccc1 [Proadifen]
[3]
  nH: 2.9 ± 0.6
  pIC50 (Mean ± SEM): 5.09 ± 0.04
[3]; IC50
  IC50: < 20 µM
[3]; read-out: IC50
  IC50: 8.1 µM

## O=[N+]([O-])NC1=NCCN1Cc1ccc(Cl)nc1 [Imidaclopride]
[3]
  inhibition of ELIC (yes/no): inhibiting neither

## N[C@@H](CO)C(=O)O [Serine]
[1]; 1 mM
  effect on ELIC (agonist test): no effect

## O=C(O)[C@@H]1CCC(O)=N1 [pyroglutamate]
[1]; 10 mM
  effect on ELIC (agonist test): did not activate ELIC

## N[C@@H](CCC(=O)O)C(=O)O [L-glutamate]
[1]; 1 mM
  effect on ELIC (agonist test): no effect
[1]; 10 mM
  effect on ELIC (agonist test): did not activate ELIC

## NC(=O)CC[C@H](N)C(=O)O [Glutamine]
[3]
  effect when co-applied in the presence of GABA: no effect
[1]; 1 mM
  effect on ELIC (agonist test): no effect

## CC(=O)OCC[N+](C)(C)C [ACh]
[1]; [6]
  EC50: > 10000 µM
[1]; 10 mM
  effect on ELIC (agonist test): no ELIC responses

## N[C@@H](CS)C(=O)O [Cysteine]
[1]; 1 mM
  effect on ELIC (agonist test): no effect

## O=C1CCCO1 [γ-butyrolactone]
[1]; 10 mM
  effect on ELIC (agonist test): did not activate ELIC

## N[C@@H](Cc1c[nH]cn1)C(=O)O [Histidine]
[3]
  effect when co-applied in the presence of GABA: no effect
[1]; 1 mM
  effect on ELIC (agonist test): no effect
